This is an account of results in US20260166039A1 (SCHRÖDINGER, INC., priority 2022, published 2026).

What is called pIC50 is −log10 of the IC50, conventionally taken in molar units. Higher therefore signals a small IC50.

pIC50: −log10 of the molar value. Bounds are passed on as bounds.

For one assay, the target named is T1, Wee1 kinase domain (Homo sapiens, UniProt P30291).
T1 construct: Wee1 kinase domain was purchased from Carna (catalog #05-177); purchased Carna 05-177
T1 sequence (P30291 299-569 limits assumed): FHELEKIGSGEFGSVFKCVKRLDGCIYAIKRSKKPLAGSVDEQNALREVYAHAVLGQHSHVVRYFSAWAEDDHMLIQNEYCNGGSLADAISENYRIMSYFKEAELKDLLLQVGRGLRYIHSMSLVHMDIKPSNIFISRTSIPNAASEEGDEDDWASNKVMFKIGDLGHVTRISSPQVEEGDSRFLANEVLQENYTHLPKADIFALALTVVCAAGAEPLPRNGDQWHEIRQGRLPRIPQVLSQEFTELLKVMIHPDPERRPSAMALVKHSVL
The experiment in a line: Wee1 Kinase Biochemical Assay (ADP-Glo). The note with it: 1 nM Wee1 enzyme, 15 uM ATP, 4 hours at 25° C. How it is done:
Wee1 Kinase Biochemical Assay Protocol
Wee1 kinase domain was purchased from Carna (catalog #05-177). Wee1 kinase activity was determined with Poly(Lys,Tyr 4:1) hydrobromide as a substrate (Sigma-Aldrich) and by measuring ADP production using the ADP-Glo Kinase Assay kit (Promega) following the manufacturer's instructions. The kinase reaction was performed using the following conditions:
Buffer: 40 mM Tris-HCl, 20 mM magnesium chloride, supplemented with 0.1 mg/mL bovine serum albumin and 2 mM DTT. The final reaction mix contained 1 nM Wee1 enzyme, 15 uM ATP, and 2 ng/mL Poly(Lys,Tyr 4:1) hydrobromide substrate. The reaction time was 4 hours at 25° C.
The ADP-Glo signal was measured using the Envision plate reader and the percentage inhibition of kinase activity calculated for each inhibitor tested. Percent inhibition of Wee1 kinase activity was calculated based on the following formula.
[formula] • SSample: the signal of compounds • SHigh Ctrl: the signal of high control (DMSO) • SLow Ctrl: the signal of low control (positive control Wee1 inhibitor at saturating concentration)
Compound `CN1CCN(c2ccc(Nc3ncc4c(n3)N(c3cnccn3)[C@@H]3CC(C)(C)OC[C@]43C)cc2)CC1` (single isomer, unassigned) [Example 827] showed a pIC50 of over 8.00.
For the compound `Cc1cc(Nc2ncc3c(n2)N(c2cccc(N=S(C)(C)=O)n2)C2CC(C)(C)OCC32C)cc(=O)n1C` (single isomer, unassigned) [Example 816], the pIC50 is over 8.00.

The assay is the same for the next values; noted with them: Wee1 kinase domain, 15 uM ATP, ADP-Glo.
`Cc1cc(Nc2ncc3c(n2)N(c2cccc(N=S(C)(C)=O)n2)[C@H]2CC(C)(C)OC[C@@]32C)ccc1[C@@H]1CCNC1` (single isomer, unassigned) [Example 144] showed a pIC50 of 6.00 to 7.00.
With `Cc1cc(Nc2ncc3c(n2)N(c2cccc(N4C(=O)OC[C@@H]4C)n2)[C@H]2CC(C)(C)OC[C@@]32C)ccc1[C@H]1CCNC1` (single isomer, unassigned) [Example 266], the pIC50 was 7.00 to 8.00.
`CNCc1cccc(N2c3nc(Nc4cnn(C(C)(C)C)c4)ncc3[C@]3(C)COC(C)(C)C[C@H]23)n1` (single isomer, unassigned) [Example 47] had a pIC50 of 6.00 to 7.00.
In turn, `CC1(C)C[C@@H]2N(c3cccc(N=S(C)(C)=O)n3)c3nc(Nc4ccc(C5CNC5)c(F)c4)ncc3[C@]2(C)CO1` (single isomer, unassigned) [Example 189] showed a pIC50 of 6.00 to 7.00.
Compound `CNCc1cccc(N2c3nc(Nc4ccc(C(C)(C)C)cc4)ncc3[C@]3(C)COC(C)(C)C[C@H]23)n1` (single isomer, unassigned) [Example 74] gave a negative-log IC50 (pIC50) of 7.00 to 8.00.

Staying with this assay, now noted: class symbols; 1 nM Wee1 enzyme, 15 uM ATP, 4 hours at 25° C.
In the case of `CC1(C)C[C@H]2N(c3cccc(N=S(C)(C)=O)n3)c3nc(Nc4ccn(C5CCC5)c(=O)c4)ncc3[C@@]2(C)CO1` (single isomer, unassigned) [Example 802], the pIC50 is over 8.00.
Still for that read-out and setting: the result for `CNCc1cccc(N2c3nc(Nc4ccc(N5CCN(C)CC5)c(C)c4)ncc3[C@]3(C)COC(C)(C)C[C@H]23)n1` (single isomer, unassigned) [Example 447] reads 6.00 to 7.00; that for `C[C@H]1CCC(=O)N1c1cccc(N2c3nc(Nc4ccc(N5C[C@H]6C[C@@H]5CN6C)cc4)ncc3[C@]3(C)COC(C)(C)C[C@H]23)n1` [Example 656, (S)-5-methyl-1-(6-((4bS,8aS)-4b,7,7-trimethyl-2-((4-((1R,4R)-5-methyl-2,5-diazabicyclo[2.2.1]heptan-2-yl)phenyl)amino)-4b,7,8,8a-tetrahydropyrano[3′,4′:4,5]pyrrolo[2,3-d]pyrimidin-9(5H)-yl)pyridin-2-yl)pyrrolidin-2-one], 7.00 to 8.00; that for `CC1(C)CC2N(c3cccc([C@@H]4COCCN4)n3)c3nc(Nc4ccc(N5CCOCC5)cc4)ncc3C2(C)CO1` (stereo in doubt) [Example 733, (4bS,8aS)-4b,7,7-trimethyl-9-(6-((R)-morpholin-3-yl)pyridin-2-yl)-N-(4-morpholinophenyl)-4b,5,7,8,8a,9-hexahydropyrano[3′,4′:4,5]pyrrolo[2,3-d]pyrimidin-2-amine], 7.00 to 8.00.
In turn, `CC1(C)C[C@@H]2N(c3cccc(N4CCCC4=O)n3)c3nc(Nc4ccc(C5CNC5)cc4)ncc3[C@]2(C)CO1` [Example 663, 1-(6-((4bS,8aS)-2-((4-(azetidin-3-yl)phenyl)amino)-4b,7,7-trimethyl-4b,7,8,8a-tetrahydropyrano[3′,4′:4,5]pyrrolo[2,3-d]pyrimidin-9(5H)-yl)pyridin-2-yl)pyrrolidin-2-one] gave a pIC50 of 7.00 to 8.00.
In the case of `CC1(C)C[C@H]2N(c3cccc(N=S(C)(C)=O)n3)c3nc(Nc4ccc(N5CCN6CCC5C6)cc4)ncc3[C@@]2(C)CO1` (single isomer, unassigned) [Example 511], the pIC50 is over 8.00.
Compound `CN1CCC(c2ccc(Nc3ncc4c(n3)N(c3cccc(N5CCOC5=O)n3)[C@H]3CC(C)(C)OC[C@@]43C)cc2)CC1` (single isomer, unassigned) [Example 590] had a pIC50 of 7.00 to 8.00.
